Experimental data from patent US20120164128A1, “MEANS AND METHODS FOR COUNTERACTING POLYQ EXPANSION DISORDERS” (Academisch Medisch Centrum, priority 2009, published 2012).

Tests used:
polyQ peptides = test: Peptidase inhibitor study in cells co-expressing DnaJB6, Western blot against polyQ; format: cell-based; conditions: inhibitor in combination with DnaJB6, treated for eight hours, FIG. 8B
Description: (§1) Cytosolic extracts were generated by lysing cells with 0.1% Triton X-100 for 30 minutes at 4° C., and supernatant was used after spinning down the lysate. 20 μg of cytosolic protein lysates were separated by 18% SDS-PAGE and transferred to Protan nitrocellulose membranes. Membranes were blocked in 5% dry milk in TBS containing 0.3% tween and probed with anti-Polyglutamine 1C2 (MAB1574, Millipore). Preparation of SDS-soluble and SDS-insoluble protein fractions was described before (example 1 and Carra et al., 2008). For peptidase inhibitory studies, transfected cells were treated for eight hours with different peptidase inhibitors before lysates were generated for Western blotting.
To elucidate which clearance pathway led to the degradation of the polyQ peptides, several inhibitors were used in combination with DnaJB6 and DnaJB8. Cysteine proteases were inhibited by E-64, aspartyl proteases by pepstatin A, metalloproteases by bestatin, serine proteases by phenylmethylsulfonyl (PMSF), proteasomes were inhibited by MG-132 and macroautophagy was inhibited by 3-methyladenine (3-MA).

[1] = tested on: polyQ peptides derived from GFP-Ub-Q65; test: Western blot against polyQ (1C2) of cells expressing GFP-Ub-Q65 with altered TPPII activity; format: cell-based; conditions: for polyQ peptide levels: cells expressing GFP-Ub-Q65, TPPII co-expressed or inhibited, FIG. 10 panel A
Description: as §1
Large polyQ-peptides are preferably cleaved by endo-peptidases, as a few cleavages will result in smaller polyQ peptides below the disease-threshold that can be targeted by recycling amino-peptidases. To measure endo-peptidase activity against glutamines, we designed a probe containing 8 glutamines, flanked by a fluorophore (left) and a quencher (right). When the glutamines are cleaved, the quencher is released from the fluorophore, leading to fluorescence. Since the termini themselves are protected against exo-peptidases, only endo-peptidases can handle the peptide by cleaving the Q stretch. […] Since this experiment was performed with a small Q peptide, we next examined whether TPPII was able to prevent accumulation and aggregation of polyQ peptides derived from GFP-Ub-Q65. […] Some additional high molecular weight bands were present, representing oligomeric complexes. […] When testing two TPPII variants that have an altered conformation and lowered endo- peptidase activity, the levels of polyQ peptides (and resulting aggregates) increased again, showing that TPPII complex formation affects polyQ peptide degradation. […] This was achieved by either co-expressing TPPII or adding the specific inhibitor of TPPII, butabindide. […] Similarly, polyQ fragments generated by the proteasome upon degradation of polyQ expanded proteins were targeted by TPPII. […]

polyQ peptides (Q65) = test: SDS-soluble and SDS-insoluble fractions stained against polyQ; format: cell-based; conditions: co-expression with Q65 peptides; for amount of polyQ peptides in the SDS-insoluble fraction: FIG. 8A
Description: Cytosolic extracts were generated by lysing cells with 0.1% Triton X-100 for 30 minutes at 4° C., and supernatant was used after spinning down the lysate. 20 μg of cytosolic protein lysates were separated by 18% SDS-PAGE and transferred to Protan nitrocellulose membranes. Membranes were blocked in 5% dry milk in TBS containing 0.3% tween and probed with 1:1000 anti-GFP (Molecular Probes), 1:100 anti-Ub (SIGMA) or the anti-Polyglutamine 1C2 (MAB1574, Millipore). Polyclonal Horseradish Peroxidase (HRP) conjugated secondary antibodies, anti-rabbit (Sigma) or anti-mouse (DAKO) were used 1:10.000 to detect the primary antibodies via Lumi-lightPLUS westernblotting substrate (Roche). Preparation of SDS-soluble and SDS-insoluble protein fractions was described before (Carra et al., 2008). Briefly, cells were trypsinized, homogenized, and heated for 10 min at 99° C. in sample buffer (70 mM Tris pH 6.8, 1.5% SDS, 20% glycerol) supplemented with 50 mM DTT 72 hours after transfection. Cell lysates were centrifuged for at least 30 minutes at 14.000 rpm at room temperature. Supernatants were used as SDS-soluble fraction to which 0.05% bromophenol blue was added. Pellets represented SDS-insoluble fractions and were dissolved in 100% formic acid, incubated 30 minutes at 37° C., lyophilized overnight in a speed vac (Eppendorf), and resuspended in a ¼ of the volume of sample buffer containing 0.05% bromophenol blue. Samples were separated on either 18% SDS-PAGE (anti-polyQ), or 12.5% SDS-PAGE (anti-GFP) and further treated as Western blots.
as §1, with “For peptidase inhibitory studies, transfected cells were treated for eight hours with different peptidase inhibitors before lysates were generated for Western blotting.” left out

HEK293T cells = test: Scoring of cells with fluorescent aggregates by fluorescence microscopy; format: cell-based, Human
Description: Human embryonic kidney cells (HEK293T) and Mel JuSo fibroblast cells where cultured in IMDM (GIBCO) supplemented with 10% FCS and penicillin/streptomycin/L-glutamine. The cells where transiently transfected with Fugene6 (Roche) and analyzed at indicated time-points after transfection. Mouse STHdh^+/+(Q7) cells (kindly provided by Marcy MacDonald) (Trettel et al, 2000) and N2A neuroblastoma cells were cultured in DMEM supplemented with 10% FCS and penicillin/streptomycin/L-glutamine. Neuronal cells where transiently transfected with Lipofectamine 2000 (Invitrogen). Mouse STHdh^+/+(Q7) cells were incubated at 32° C. For toxicity measurements, N2A cells were analyzed by FACS LSRII for GFP fluorescence 24 or 48 hours after transfection, and the percentage of GFP-positive cells was quantified.
HEK293T cells were transfected with indicated constructs and the percentages of aggregates were scored using an inverted fluorescence microscope (Leica DMR). For imaging, Mel Juso cells were transiently transfected with indicated constructs and images where obtained using a confocal microscope (Leica SP2) using a 63× objective. Note that some pictures show ‘over-exposed’ fluorescent aggregates in order to visualize non-sequestered, cytoplasmic staining. […]

| Molecule | polyQ peptide levels despite DnaJB6 (polyQ peptides) | polyQ peptide levels [1] | amount of polyQ peptides in the SDS-insoluble fraction (polyQ peptides (Q65)) | aggregation on co-expression with GFP-Ub-Q65 (HEK293T cells) | further results |
| --- | --- | --- | --- | --- | --- |
| CC(C)C[C@H](NC(=O)[C@H]1O[C@@H]1C(=O)O)C(=O)NCCCCN=C(N)N [E-64] | re-appearance of polyQ peptides |  |  |  |  |
| O=S(=O)(F)Cc1ccccc1 [PMSF, phenylmethylsulfonyl] | re-appearance of polyQ peptides |  |  |  |  |
| CCCCNC(=O)[C@@H]1Cc2ccccc2N1C(=O)[C@@H](N)CC [butabindide, reference compound] |  | accumulation of polyQ peptides |  |  |  |
| DnaJB6: member of the Hsp40/DnaJ heat shock protein family, co-expressed chaperone |  |  | remarkably reduced | considerable decrease in aggregation | polyQ peptides in the SDS-soluble fraction (polyQ peptides (Q65); FIG. 8A and B): marked decrease |
| tripeptidyl peptidase II [TPPII] |  | reduced polyQ levels |  |  | aggregated and low-molecular weight Q65 peptide levels ([1]; co-expression with GFP-Ub-Q65, immunoblot 1C2, FIG. 7): decrease in both aggregated and low-molecular weight Q65 peptides |
| DnaJB8: member of the Hsp40/DnaJ heat shock protein family, co-expressed chaperone (protein, UniProt Q8NHS0 1-232, looked up) DnaJ homolog subfamily B …: MANYYEVLGVQASASPEDIKKAYRKLALRWHPDKNPDNKEEAEKKFKLVSEAYEVLSDSKKRSLYDRAGCDSWRAGGGASTPYHSPFDTGYTFRNPEDIFREFFGGLDPFSFEFWDSPFNSDRGGRGHGLRGAFSAGFGEFPAFMEAFSSFNMLGCSGGSHTTFSSTSFGGSSSGSSGFKSVMSSTEMINGHKVTTKRIVENGQERVEVEEDGQLKSVTVNGKEQLKWMDSK |  |  | remarkably reduced | considerable decrease in aggregation |  |
